Source: patent publication US20240252463A1, “METHODS OF TREATING FIBROTIC PATHOLOGIES” (Mayo Foundation for Medical Education and Research, priority 2018, published 2024)
Where two headings read alike, the source gives them in different places.

Columns and labels:
YAP/TAZ = YAP/TAZ nuclear localization in IMR-90 and other mesenchymal cells (cardiac, dermal fibroblasts, hepatic stellate cells); assay type: cell-based, human; conditions: FIG. 37B
cAMP = cAMP Assay (cAMP-Glo) in lung fibroblasts; assay type: cell-based, human; conditions: IPF patient-derived fibroblasts, 20 minutes, DHX 10 μM
Description: cAMP Assay: IPF patient derived fibroblasts were plated in EMEM containing 10% FBS overnight. […] 20 minutes prior to cell lysis media was removed and cells were treated with “induction buffer” containing nonselective phosphodiesterase inhibitors and the indicated concentration of compound(s). Luminescence was measured on a Flexstation 3 (Molecular Devices) plate reader.

αSMA = αSMA intensity (fibroblast activation) in IPF patient-derived lung fibroblasts + TGFβ; assay type: cell-based, human; conditions: Homo sapiens, SMA, 1 μM + TGFβ, treated for 72 hours
αSMA+ stress fibers = experiment: TGFβ-induced αSMA+ stress fiber formation; assay type: cell-based, human; conditions: IMR-90, TGFβ 72 hours, DHX 10 μM from 48-72 hours
Description: ImmunofluorescenceMicroscopy: Cells were plated into 96 well plates (Corning 3603) in their specific growth media and allowed to attach (8 hours). Media was then exchanged for the indicated conditions for each experiment. Cells were fixed in 3.7% formalin (Sigma-Aldrich), permeabilized in 0.25% Triton X-100 (Sigma-Aldrich) and then blocked with 1% BSA for 1 h. Cells or tissue sections were incubated overnight with mouse monoclonal antibody against αSMA (Sigma-Aldrich F3777), and/or a rabbit monoclonal antibody against YAP/TAZ (Cell Signaling D24E4) diluted 1:200 in PBS with 1% BSA.

YAP/TAZ target genes = experiment: YAP/TAZ target gene expression in flow-sorted lung cells of bleomycin-injured mice; assay type: in vivo, mouse; conditions: bleomycin day 10, two doses of DHX (2 and 24 hours prior to collecting lungs)
Description: 29A. Two groups of mice were injured intratracheally with bleomycin at day 0, on day 10 one group received two doses of DHX (2 and 24 hours prior to collecting lungs) and the other received vehicle control. On day 11 lungs were collected to flow sort fibroblasts, epithelial, and endothelial cells. 29B. Changes in RNA expression of YAP/TAZ target genes from freshly isolated cells.
Cell Sorting: FACS: PBS perfused mouse lungs were finely minced with a razor blade in a 100 mm petri dish in 1 mL of cold DMEM medium containing 0.2 mg ml^−1 Liberase DL (Roche) and 100 U ml^−1 DNase I (Roche). The mixture was transferred to 15 ml tubes and incubated at 37° C. for 30 min in a water bath. Enzymatic digestion was inactivated by adding DMEM medium containing 10% fetal bovine serum. The cell suspension was passed once through a 40 µm cell strainer (Fisher) to remove multicellular debris. Cells were then centrifuged at 1,300 r.p.m. at 4° C. for 10 min, washed once in PBS and resuspended in 0.2 ml of FACS buffer (1% BSA, 0.5 μM EDTA pH 7.4 in PBS). The single cell suspension was then incubated with anti-CD45-PerCp-Cy5.5, anti-CD31-PE, anti-PDGFRα-APC and anti-EpCAM-BV421 antibodies (1:200) (Biolegend) for 20 min on ice. After incubation, cells were washed with ice-cold FACS buffer and resuspended in 1 ml of FACS buffer. FACS sorting was conducted using a BD FACS Aria II (BD Biosciences). […]

Oc1cc2c(cc1O)[C@H]1c3ccccc3CN[C@@H]1CC2 (racemic) [Dihydrexidine, dihydrexidine]
YAP/TAZ nuclear localization in mesenchymal cells derived from uterine fibroids (YAP/TAZ): marginal inhibition of YAP/TAZ nuclear localization | cAMP (cAMP): elevated cAMP | activity at 1 µM (αSMA; patient sample IPF-1, read-out: αSMA intensity (% of DMSO control) IPF-1): 4.98% | activity at 1 µM (αSMA; patient sample IPF-2, read-out: αSMA intensity (% of DMSO control) IPF-2): 0.0469% | activity at 1 µM (αSMA; patient sample IPF-3, read-out: αSMA intensity (% of DMSO control) IPF-3): 0.513% | activity at 1 µM (αSMA; patient sample IPF-4, read-out: αSMA intensity (% of DMSO control) IPF-4): 12% | myofibroblastic transition (αSMA+ stress fibers) (αSMA+ stress fibers): reversed this transition | expression of YAP/TAZ target genes in freshly isolated lung fibroblasts, epithelial and endothelial cells (YAP/TAZ target genes): selectively blocks expression of YAP/TAZ target genes in lung fibroblasts in vivo
